Laboratory results as given in patent US20040266696A1, “Angiogenesis drugs” (priority 2001, published 2004).
Square brackets hold non-standard residues; d marks the D form. Ends that are not written are not given here.

Experiments:
[1] = tested on: mouse; test: Angiogenesis action in vivo examined by DAS assay (microcell embedded in the back of mouse); conditions: for angiogenic activity / angiogenesis action (summary in words): DAS assay in mice; for Angiogenesis Magnitude (number of newly formed spiral blood vessels): peptide 10 μg/ml in DMEM injected into microcell in back of mouse, observed five days later; for formation of capillary / spiral blood vessels in tissue contacting the microcell (observation): peptide 10 μg/ml in DMEM; for formation of capillary / spiral blood vessels in tissue contacting the microcell (observation) / angiogenesis magnitude: microcell in back of mouse, five days; for angiogenesis magnitude: peptide-bound gelatin collagen I mixture solution 10 μg/ml
Method: A solution containing the peptide at a concentration of 10 μg/ml in DMEM (Dulbecco's modified Eagle medium) used as a cell culture medium was prepared.
The magnitude indicates the number of newly formed spiral blood vessels, and M0 means that the number is 0, M1 means 1 to 10, M2 means 11 to 20, M3 means 21 to 30, M4 means 31 to 40, M5 means 41 to 50 and M6 means 51 or more. Thus, the larger the magnitude M, the higher the angiogenic activity.
The AGP conjugate (prepared in Example 10) having a concentration of 100 μg/ml was dissolved in collagen I at a ratio of 1:10 to obtain a peptide-bound gelatin collagen mixture solution having a concentration of 10 μg/ml.

[2] = tested on: transformed rat lung endothelial cells (TRLECs); test: Angiogenic action in three-dimensionally cultured vascular endothelial tissue (tube formation); type: cell-based
Method: Rat vascular endothelial cells were three-dimensionally cultured in the presence of AGP synthesized in Example 1. As the cells, transformed rat lung endothelial cells (TRLECs) were used. TRLECs were placed in a collagen I layer mixed with the peptide solution, which contained 10 μg/ml of AGP, and cultured in a carbon dioxide gas incubator for 14 days. Control experiments were carried out in the absence of a factor. And positive control experiments were performed in the presence of VEGF, which is known as a potent angiogenesis factor.
No tubes were detected in the control at all. […] It was observed that a plurality of microvilli were found on the inner surfaces of the tubes. […] Tight junction formation was observed where the endothelial cells were firmly bound. These observations indicate that the endothelial cells acquired polarity and formed tubes. The polarity means that a cell develops regions having different functions such as head and tail. No polarity is given to the endothelial cells when the endothelial cells are cultured in a usual way, and so no tubes are formed.
Rat vascular endothelial cells were three-dimensionally cultured in the presence of AGP-bound gelatin synthesized in Example 10. As the cells, transformed rat lung endothelial cells (TRLECs) were used. Peptide AGP-bound gelatin (conjugate) and collagen type I were mixed at a ratio of 1:10, and TRLECs were placed in a layer containing the conjugate-collagen mixture solution, having a final concentration of 10 μg (microgram/ml) and cultured in a carbon dioxide gas incubator for 14 days. Control experiments were carried out in the absence of a factor, and in the presence of VEGF known as an angiogenesis factor.
No tube formations were detected in the control at all. […] It was observed that a plurality of microvilli were formed on the inner surfaces of the tubes. […] Tight junction formation was observed where the endothelial cells were firmly bound. These observations indicate that the endothelial cells acquired polarity and formed tubes.

[3] = TRLECs in collagen I layer, 10 μg/ml of AGP, cultured 14 days, microscope

Substance | Angiogenesis Magnitude (number of newly formed spiral blood vessels) [1] | also measured
AGP4: AGP heptapeptide wherein the fourth amino acid tyrosine was substituted by alanine (SVVAGLR; Oligopeptide not having angiogenic activity) | M0 (M0 means that the number is 0) | angiogenic activity / angiogenesis action (summary in words) [1]: angiogenesis action was lost; formation of capillary / spiral blood vessels in tissue contacting the microcell (observation) [1]: not observed at all
AGP: heptapeptide (angiogenic peptide) having the amino acid sequence shown in SEQ ID NO: 1 (SVVYGLR; Oligopeptide having angiogenic activity) | M5 (M5 means 41 to 50) | tube-like structure formation by endothelial cells [2, 3]: arranged in the tube-like structure; lengths of the tubes formed, compared with VEGF ([2]; TRLECs in collagen I layer, 10 μg/ml, 14 days): significantly longer; angiogenic activity / angiogenesis action (summary in words) [1]: strong (prominent) angiogenesis action; formation of capillary / spiral blood vessels in tissue contacting the microcell (observation) [1]: a number of branched capillary blood vessels were formed; angiogenesis magnitude [1]: M5 (M5 means 41 to 50)
GLR (Oligopeptide not having angiogenic activity) [compound 7] | M0 (M0 means that the number is 0) | 
GRGDSVVYGLR (Oligopeptide having angiogenic activity) [Example 16] |  | angiogenic activity / angiogenesis action (summary in words) [1]: high angiogenic activities
SVV (Oligopeptide not having angiogenic activity) [compound 4] | M0 (M0 means that the number is 0) | 
SVV yGLR (SVV[dY]GLR) [Example 18] | M2 (M2 means 11 to 20) | 
SVVFGLR (Oligopeptide having angiogenic activity) [Example 12] | M6 (M6 means 51 or more) | angiogenic activity / angiogenesis action (summary in words) ([1]; listed as SEQ ID NO: 9): especially high angiogenic activity; angiogenic activity / angiogenesis action (summary in words) ([1]; listed as SEQ ID NO:9): higher angiogenic activity than the peptide having the amino acid sequence shown in SEQ ID NO: 1
SVVWGLR (Oligopeptide having angiogenic activity) [Example 19] | M3 (M3 means 21 to 30) | 
SVVY (Oligopeptide having angiogenic activity) [Example 21] | M1 (M1 means 1 to 10) | 
SVVYG (Oligopeptide having angiogenic activity) [Example 20] | M2 (M2 means 11 to 20) | 
SVVYGL (Oligopeptide having angiogenic activity) [Example 13] | M5 (M5 means 41 to 50) | 
SVVYGLRG (Oligopeptide having angiogenic activity) [Example 15] |  | angiogenic activity / angiogenesis action (summary in words) [1]: high angiogenic activities
VEGF | M3 (M3 means 21 to 30) | tube-like structure formation by endothelial cells [2, 3]: arranged in the tube-like structure; tube-like structure formation by endothelial cells ([2]; TRLECs in conjugate-collagen type I mixture (1:10), final concentration 10 μg/ml, 14 days): arranged in the tube-like structure; angiogenesis magnitude [1]: M3 (M3 means 21 to 30)
VVYGLR (Oligopeptide having angiogenic activity) [Example 14] | M5 (M5 means 41 to 50) | 
VYGLR (Oligopeptide not having angiogenic activity) [compound 5] | M0 (M0 means that the number is 0) | 
YGLR (Oligopeptide not having angiogenic activity) [compound 6] | M0 (M0 means that the number is 0) | 
